The source of these data is PubChem BioAssay (NCI).

Structures are written as SMILES.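 Following 48 hours of exposure in 96-well plates, responses at five concentrations were used to interpolate endpoints linearly. GI50: concentration for 50% inhibition of growth. TGI denotes the concentration required for complete inhibition of growth.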

What all share (assay): growth of human tumour cells (NCI), 48 h
Assay [1] deals with 786-0 renal.
Assay [2] has as its system COLO 205 colon.
Assay [3] relates to HOP-62 NSCLC.
In assay [4] the test system is IGROV1 ovarian.
For assay [5], the system named is NCI-H522 lung.
Assay [6] concerns SK-MEL-5 melanoma.
The test system of assay [7] is T-47D breast.
Assay [8] relates to U251 CNS.
In assay [9] the test system is UO-31 renal.
Assay [10] concerns SK-OV-3 ovarian.

For the compound `Cc1cc(=O)oc2c(CN(CCCl)CCCl)c(O)ccc12`, the TGI in assay [1] was over 100 µM; in [2], 71.7 µM; in assay [3], over 100 µM; in assay [4] it was over 100 µM; in assay [5] it was 36.4 µM; in assay [6], over 100 µM. Further, the TGI in [7], in assay [8] and in assay [9] was over 100 µM throughout.

For the compound `Cc1cnc2cc(Cl)ccc2c1SCC(=O)O`, the TGI in assay [1], in assay [3], in assay [4], in [5], in [6] and in assay [7] was over 100 µM throughout. The TGI in [8] and in [9] was over 100 µM in each case.

`CC1CN=C(N(C(=O)Nc2ccccc2)C2CCCCC2)S1` (configuration not stated): the TGI in [1] was 31.4 µM; in assay [2], 37 µM; in [3], over 100 µM; in [4], 35.6 µM; in assay [6], 28.4 µM; in assay [10] it was over 100 µM. Besides, the TGI in assay [7] worked out at 92.7 µM; in [8], 30.8 µM; in [9], 32.3 µM.

In the case of `O=C(c1cccs1)N(C(=O)N1CCCCC1)c1ccccc1`, the TGI in assay [1], in [2], in assay [4], in [6], in assay [10] and in assay [7] was over 100 µM each time. For the same compound, the TGI in [8] and in assay [9] was over 100 µM throughout.

`NS(=O)(=O)c1ccc(NS(=O)(=O)c2ccc(NC(=O)N(c3ccccc3)c3ccccc3)cc2)cc1`: the TGI in assay [1], in assay [2], in assay [3], in [4], in assay [5] and in assay [6] was over 100 µM each time. Further, the TGI in assay [7], in assay [8] and in assay [9] was over 100 µM in each case.

In the case of `c1ccc(C2C3=C(CCCC3)Nc3nnnn32)cc1` (configuration not stated), the TGI in assay [1], in [2], in assay [3], in [4], in assay [6] and in assay [10] was over 100 µM each time. Further, the TGI in [7], in assay [8] and in [9] was over 100 µM each time.

Regarding `C(=N\Nc1nnc(-c2nnc(N/N=C/c3ccccc3)o2)o1)/c1ccccc1`, the TGI in [1], in assay [2], in [3], in assay [4], in assay [6] and in assay [7] was over 10 µM each time. Moreover, the TGI in assay [8] and in [9] was over 10 µM each time.

Regarding `O=C1/C(=C/Cc2ccco2)N=C(c2ccccc2)N1c1nc2c(Cl)cc(Cl)cc2s1`, the TGI in [1], in assay [2], in assay [3], in assay [4], in assay [6] and in assay [10] was over 100 µM throughout. The values for the TGI in [7], in [8] and in [9] were 73.5 µM, 83.5 µM and 72.8 µM, respectively.

For `N#CC(NNC(=O)c1c(Cl)c(Cl)c(Cl)c(Cl)c1-c1nc2ccc(C(=O)c3ccccc3)cc2[nH]1)c1cccc(Oc2ccccc2)c1` (configuration not stated), the TGI in assay [1] was 51.4 µM; in assay [2], 46.1 µM; in assay [3] it was 70.2 µM; in [4] it was 93.1 µM; in assay [6], 38.5 µM; in assay [10], over 100 µM. The TGI in assay [7] is 76.2 µM; in assay [8], over 100 µM; in assay [9], over 100 µM.

Consider `C/C(=N/NC(=O)c1ccccc1Nc1ccccc1C(=O)N/N=C(\C)c1ccc(C)cc1)c1ccc(C)cc1`, for which the TGI in assay [1], in [2], in assay [3], in assay [4], in assay [6] and in assay [10] was over 100 µM in each case. In addition, the TGI in assay [7], in assay [8] and in assay [9] was over 100 µM in each case.

With `CCC(C)Cn1c(C)nc2c1C(=O)c1ccccc1C2=O` (configuration not stated), the TGI in assay [1] was 75.4 µM; in assay [2], 87.5 µM; in [3], over 100 µM; in assay [4] it was over 100 µM; in assay [5], over 100 µM; in assay [6], 29.6 µM. In addition, the TGI in [10] was over 100 µM; in assay [8] it was over 100 µM; in assay [9], 87.8 µM.

Regarding `COc1ccc(Nc2ccnc3cc(Cl)ccc23)cc1CN(CCCl)CCCl`, the GI50 is 1.39 µM in [2]; 1.37 µM in assay [3]; 1.31 µM in assay [4]; 1.56 µM in [10]; 2.27 µM in assay [7]; 1.79 µM in assay [8]. Besides, the TGI in [2] is 3.56 µM; in [3], 4.01 µM; in assay [4], 4.19 µM; in [7], over 100 µM; in assay [8], over 100 µM.
